According to patent US20140155410A1 (GlaxoSmithKline LLC, priority 2008, published 2014):

Molecular target: T1, Full length Human FAK (Flag-His-TEV-FAK1) (Homo sapiens, UniProt Q05397)
T1 construct: Full length Human FAK was expressed using baculovirus in Sf9 cells; made in house; host or cells: baculovirus in Sf9 cells
Assay: Biochemical assay for FAK activity, Assay 2: LANCE Ultra ULight peptide phosphorylation, 665 nm/615 nm ratio
Details: Flag-His-TEV-FAK1, 10 μM ATP, 30 min pre-incubation; for IC50: read-out: Assay 2 FAK H 31284A TRF PXC50 (converted)
Experimental: Flag-His-TEV-FAK1 was prepared in-house. Full length Human FAK was expressed using baculovirus in Sf9 cells with N-terminal FLAG-6×His tags followed by a TEV cleavage site (FLAG-6×His-TEV-huFAK). […] To measure inhibitors of FAK, compounds were first prepared as a 100× stock in 100% DMSO. […] After incubating for 120 minutes at room temperature, the reaction is quenched by adding 5 uL of 20 mM EDTA and 5nMEu-Anti-pTyr antibody in 1× LANCE detection buffer.

T1 sequence (Q05397 whole entry): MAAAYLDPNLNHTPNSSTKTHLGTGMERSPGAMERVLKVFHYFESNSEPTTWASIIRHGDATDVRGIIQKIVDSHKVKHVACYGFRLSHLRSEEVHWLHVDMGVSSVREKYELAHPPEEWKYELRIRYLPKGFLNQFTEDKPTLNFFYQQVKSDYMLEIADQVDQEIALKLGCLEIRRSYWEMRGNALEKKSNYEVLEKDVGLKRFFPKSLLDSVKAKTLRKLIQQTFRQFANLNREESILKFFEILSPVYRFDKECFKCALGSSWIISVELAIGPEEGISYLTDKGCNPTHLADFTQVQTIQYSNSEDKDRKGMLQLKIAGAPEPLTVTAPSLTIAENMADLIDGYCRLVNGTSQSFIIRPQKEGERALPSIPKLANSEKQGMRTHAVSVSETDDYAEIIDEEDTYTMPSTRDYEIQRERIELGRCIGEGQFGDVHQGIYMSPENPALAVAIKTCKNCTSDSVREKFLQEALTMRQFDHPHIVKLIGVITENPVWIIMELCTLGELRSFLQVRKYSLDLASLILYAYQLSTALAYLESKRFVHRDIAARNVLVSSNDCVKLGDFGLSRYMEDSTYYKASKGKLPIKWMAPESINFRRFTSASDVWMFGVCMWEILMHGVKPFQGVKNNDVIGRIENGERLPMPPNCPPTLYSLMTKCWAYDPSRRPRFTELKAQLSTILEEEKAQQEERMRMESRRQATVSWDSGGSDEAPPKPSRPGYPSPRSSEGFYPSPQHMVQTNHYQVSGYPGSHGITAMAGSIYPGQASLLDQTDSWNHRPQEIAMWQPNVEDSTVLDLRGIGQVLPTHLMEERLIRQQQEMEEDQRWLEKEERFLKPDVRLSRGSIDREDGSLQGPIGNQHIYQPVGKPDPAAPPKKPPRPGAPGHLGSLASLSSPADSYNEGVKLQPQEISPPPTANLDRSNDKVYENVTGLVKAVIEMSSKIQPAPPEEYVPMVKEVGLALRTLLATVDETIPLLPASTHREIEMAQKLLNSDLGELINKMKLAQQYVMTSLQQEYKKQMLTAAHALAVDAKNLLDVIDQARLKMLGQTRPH

| SMILES | IC50 [nM] | Assay 2 FAK H 31284A TRF PXC50 |
| --- | --- | --- |
| CNC(=O)c1ccccc1Nc1cc(Nc2cc(C)nn2C)ncc1C1CC1 [Example 53, 2-[5-Cyclopropyl-2-(2,5-dimethyl-2H-pyrazol-3-ylamino)-pyridin-4-ylamino]-N-methyl-benzamide] | 39.8 | – |
| CCn1ncc(C)c1Nc1cc(Nc2ccccc2C(=O)NOC)c(Cl)cn1 [Example 50, 2-({5-Chloro-2-[(1-ethyl-4-methyl-1H-pyrazol-5-yl)amino]-4-pyridinyl}amino)-N-(methyloxy)benzamide] | 12.6 | – |
| CONC(=O)c1ccccc1Nc1cc(Nc2cc(C)nn2C)ncc1C1CC1 [Example 55, 2-[5-Cyclopropyl-2-(2,5-dimethyl-2H-pyrazol-3-ylamino)-pyridin-4-ylamino]-N-methoxy-benzamide] | 10 | – |
| CONC(=O)c1cccc(F)c1Nc1cc(Nc2cc(C)nn2C)ncc1Cl [Example 95b, 2-({5-Chloro-2-[(1,3-dimethyl-1H-pyrazol-5-yl)amino]-4-pyridinyl}amino)-3-fluoro-N-(methyloxy)benzamide] | 2 | – |
| Cc1cc(Nc2cc(Nc3ccc(F)cc3C(=O)N3CCCN3)c(Cl)cn2)n(C(C)C)n1 [Example 96a, 5-Chloro-N^4-[4-fluoro-2-(1-pyrazolidinylcarbonyl)phenyl]-N^2-[3-methyl-1-(1-methylethyl)-1H-pyrazol-5-yl]-2,4-pyridinediamine] | 20000 | – |
| CONC(=O)c1cccc(F)c1Nc1cc(Nc2cnn(C)c2C)ncc1Cl [Example 95f, 2-({5-Chloro-2-[(1,5-dimethyl-1H-pyrazol-4-yl)amino]-4-pyridinyl}amino)-3-fluoro-N-(methyloxy)benzamide] | 2 | – |
| CCn1nc(C)cc1Nc1cc(Nc2ccccc2C(=O)N(C)O)c(Cl)cn1 [Example 63, 2-({5-Chloro-2-[(1-ethyl-3-methyl-1H-pyrazol-5-yl)amino]-4-pyridinyl}amino)-N-hydroxy-N-methylbenzamide] | 50.1 | – |
| CONC(=O)c1ccc(Cl)cc1Nc1cc(Nc2cc(C)nn2C(C)C)ncc1Cl [Example 69, 4-Chloro-2-[(5-chloro-2-{[3-methyl-1-(1-methylethyl)-1H-pyrazol-5-yl]amino}-4-pyridinyl)amino]-N-(methyloxy)benzamide] | 2.51 | – |
| CNC(=O)c1cc(F)ccc1Nc1cc(Nc2cc(C)nn2C(C)C)ncc1Cl [Example 85, 2-[(5-Chloro-2-{[3-methyl-1-(1-methylethyl)-1H-pyrazol-5-yl]amino}-4-pyridinyl)amino]-5-fluoro-N-methylbenzamide] | 63.1 | – |
| CNC(=O)c1cccc(F)c1Nc1cc(Nc2cc(CCO)nn2C)ncc1C(F)(F)F [Example 82, 3-Fluoro-2-{[2-{[3-(2-hydroxyethyl)-1-methyl-1H-pyrazol-5-yl]amino}-5-(trifluoromethyl)-4-pyridinyl]amino}-N-methylbenzamide] | 0.794 | – |
| CONC(=O)c1cc(Cl)ccc1Nc1cc(Nc2cc(C)nn2C(C)C)ncc1Cl [Example 70] | 6.31 | – |
| CCn1nc(CCN2CCCC2)cc1Nc1cc(Nc2ccccc2C(=O)NC)c(Cl)cn1 [Example 46, 2-{[5-Chloro-2-({1-ethyl-3-[2-(1-pyrrolidinyl)ethyl]-1H-pyrazol-5-yl}amino)-4-pyridinyl]amino}-N-methylbenzamide] | 12.6 | – |
| CCONC(=O)c1ccccc1Nc1cc(Nc2cc(C)nn2CC)ncc1Cl [Example 64, 2-({5-Chloro-2-[(1-ethyl-3-methyl-1H-pyrazol-5-yl)amino]-4-pyridinyl}amino)-N-(ethyloxy)benzamide] | 79.4 | – |
| CONC(=O)c1ccccc1Nc1cc(Nc2cnn(C)c2C)ncc1Cl [Example 47, 2-({5-Chloro-2-[(1,5-dimethyl-1H-pyrazol-4-yl)amino]-4-pyridinyl}amino)-N-(methyloxy)benzamide] | 2.51 | – |
| CONC(=O)c1ccccc1Nc1cc(Nc2c(C)cnn2CC(C)C)ncc1Cl [Example 51, 2-[(5-Chloro-2-{[4-methyl-1-(2-methylpropyl)-1H-pyrazol-5-yl]amino}-4-pyridinyl)amino]-N-(methyloxy)benzamide] | 20 | – |
| CNC(=O)c1ccc(F)cc1Nc1cc(Nc2cc(C)nn2C(C)C)ncc1Cl [Example 86, 2-[(5-Chloro-2-{[3-methyl-1-(1-methylethyl)-1H-pyrazol-5-yl]amino}-4-pyridinyl)amino]-4-fluoro-N-methylbenzamide] | 1.58 | – |
| CONC(=O)c1ccc(F)cc1Nc1cc(Nc2cc(C)nn2C(C)C)ncc1Cl [Example 73, 2-[(5-Chloro-2-{[3-methyl-1-(1-methylethyl)-1H-pyrazol-5-yl]amino}-4-pyridinyl)amino]-4-fluoro-N-(methyloxy)benzamide] | 1.26 | – |
| CCn1nc(C)cc1Nc1cc(Nc2ccccc2C(=O)NC)c(C2CC2)cn1 [Example 54, 2-[5-Cyclopropyl-2-(2-ethyl-5-methyl-2H-pyrazol-3-ylamino)-pyridin-4-ylamino]-N-methylbenzamide] | 31.6 | – |
| CNC(=O)c1cccc(F)c1Nc1cc(Nc2cc(C)nn2C)ncc1C(F)(F)F [Example 78, 2-{[2-[(1,3-Dimethyl-1H-pyrazol-5-yl)amino]-5-(trifluoromethyl)-4-pyridinyl]amino}-3-fluoro-N-methylbenzamide] | 1.58 | – |
| Cc1cc(Nc2cc(Nc3ccc(F)cc3C(=O)N3CCCN3C)c(Cl)cn2)n(C(C)C)n1 [Example 96b, 5-Chloro-N^4-{4-fluoro-2-[(2-methyl-1-pyrazolidinyl)carbonyl]phenyl}-N^2-[3-methyl-1-(1-methylethyl)-1H-pyrazol-5-yl]-2,4-pyridinediamine] | 2000 | – |

Next, values leading:

| IC50 [nM] | Assay 2 FAK H 31284A TRF PXC50 | SMILES |
| --- | --- | --- |
| 12.6 | – | CCn1nc(CO)cc1Nc1cc(Nc2c(F)cccc2C(=O)NOC)c(Cl)cn1 [Example 95c, 2-[(5-Chloro-2-{[1-ethyl-3-(hydroxymethyl) 1H-pyrazol-5-yl]amino}-4-pyridinyl)amino]-3-fluoro-N-(methyloxy)benzamide] |
| 3.98 | – | [2H]C([2H])(O)c1cc(Nc2cc(Nc3c(F)cccc3C(=O)NC)c(Cl)cn2)n(CC)n1 [Example 94, 2-[(5-Chloro-2-{[1-ethyl-3-(hydroxymethyl)-1H-pyrazol-5-yl]amino}-4-pyridinyl)amino]-3-fluoro-N-methylbenzamide-d2] |
| 2.51 | – | CCn1nc(C)cc1Nc1cc(Nc2cc(F)ccc2C(=O)NC)c(Cl)cn1 [Example 88, 2-({5-Chloro-2-[(1-ethyl-3-methyl-1H-pyrazol-5-yl)amino]-4-pyridinyl}amino)-4-fluoro-N-methylbenzamide] |
| 20 | – | CONC(=O)c1cccc(F)c1Nc1cc(Nc2cc(CO)nn2C)ncc1Cl [Example 95d, 2-[(5-Chloro-2-{[3-(hydroxymethyl)-1-methyl-1H-pyrazol-5-yl]amino}-4-pyridinyl)amino]-3-fluoro-N-(methyloxy)benzamide] |
| 3.16 | – | CCn1nc(C)cc1Nc1cc(Nc2c(F)cccc2C(=O)NC)c(Cl)cn1 [Example 74, 2-({5-Chloro-2-[(1-ethyl-3-methyl-1H-pyrazol-5-yl)amino]-4-pyridinyl}amino)-3-fluoro-N-methylbenzamide] |
| 2 | – | CCn1nc(CCO)cc1Nc1cc(Nc2c(F)cccc2C(=O)NC)c(C(F)(F)F)cn1 [Example 81, 2-{[2-{[1-Ethyl-3-(2-hydroxyethyl)-1H-pyrazol-5-yl]amino}-5-(trifluoromethyl)-4-pyridinyl]amino}-3-fluoro-N-methylbenzamide] |
| 251 | – | CNC(=O)c1cccc(F)c1Nc1cc(Nc2cc(CN(C)C)nn2C)ncc1Cl [Example 91, 2-{[5-Chloro-2-({3-[(dimethylamino)methyl]-1-methyl-1H-pyrazol-5-yl}amino)-4-pyridinyl]amino}-3-fluoro-N-methylbenzamide] |
| 1.58 | – | CCn1nc(C)cc1Nc1cc(Nc2c(F)cccc2C(=O)NOC)c(Cl)cn1 [Example 95a, 2-({5-Chloro-2-[(1-ethyl-3-methyl-1H-pyrazol-5-yl)amino]-4-pyridinyl}amino)-3-fluoro-N-(methyloxy)benzamide] |
| 12.6 | – | CCn1nc(COC)cc1Nc1cc(Nc2ccccc2C(=O)NC)c(Cl)cn1 [Example 60, 2-{[5-Chloro-2-({1-ethyl-3-[(methyloxy)methyl]-1H-pyrazol-5-yl}amino)-4-pyridinyl]amino}-N-methylbenzamide] |
| 1 | – | CCn1nc(C)cc1Nc1cc(Nc2c(F)cccc2C(=O)NC)c(C(F)(F)F)cn1 [Example 77, 2-{[2-[(1-Ethyl-3-methyl-1H-pyrazol-5-yl)amino]-5-(trifluoromethyl)-4-pyridinyl]amino}-3-fluoro-N-methylbenzamide] |
| 10 | – | CCn1nc(C)cc1Nc1cc(Nc2ccc(F)cc2C(=O)NC)c(Cl)cn1 [Example 84, 2-({5-Chloro-2-[(1-ethyl-3-methyl-1H-pyrazol-5-yl)amino]-4-pyridinyl}amino)-5-fluoro-N-methylbenzamide] |
| 10 | – | CNC(=O)c1cccc(F)c1Nc1cc(Nc2cc(CCO)nn2C)ncc1Cl [Example 89, 2-[(5-Chloro-2-{[3-(2-hydroxyethyl)-1-methyl-1H-pyrazol-5-yl]amino}-4-pyridinyl)amino]-3-fluoro-N-methylbenzamide] |
| 12.6 | – | CNC(=O)c1cccc(F)c1Nc1cc(Nc2cnn(C)c2C)ncc1Cl [Example 76, 2-({5-Chloro-2-[(1,5-dimethyl-1H-pyrazol-4-yl)amino]-4-pyridinyl}amino)-3-fluoro-N-methylbenzamide] |
| – | 8.3 | CNC(=O)c1cccc(F)c1Nc1cc(Nc2cc(C)nn2C)ncc1Cl [Example 75, 2-({5-Chloro-2-[(1,3-dimethyl-1H-pyrazol-5-yl)amino]-4-pyridinyl}amino)-3-fluoro-N-methylbenzamide] |
